Measurements as given in a compilation of properties of binary mixtures (doi:10.1016/j.molliq.2014.09.006).

Experiment: xn = mol fraction of the nth substance listed
Conditions: 101 kPa

CCCC[n+]1ccn(C)c1.O=[N+]([O-])[O-] + CCO
viscosity [mPa·s]
Conditions | x2 = 0 | x2 = 0.2 | x2 = 0.4 | x2 = 0.6
283.15 K | 400 | 121 | 46.4 | 18.9
288.15 K | 290 | 93 | 37.8 | 15.9
293.15 K | 210 | 73 | – | 13.5
298.15 K | – | – | 26.1 | 11.6
303.15 K | 121 | 47.1 | 22 | –
308.15 K | 94 | – | 18.8 | 8.84
313.15 K | 74 | – | 16.3 | 7.81
318.15 K | 59.4 | – | – | 6.95
323.15 K | 48.2 | 22.8 | 12.4 | 6.23
328.15 K | 39.6 | 19.6 | 11 | 5.62
333.15 K | 32.9 | 16.9 | 9.8 | 5.1
